Tested on: rabbit heart papillary muscle subjected to hypoxia
Test: Metabolic tests: ATP concentrations in rabbit heart papillary muscle subjected to hypoxia after oral treatment
Assay type: in vivo
Settings: 1 g/kg by mouth or equimolecular doses, three consecutive days; tissue held anoxic for 90 minutes; untreated controls 1.70±0.68 to 0.46±0.071
Source text: After three consecutive days of treatment, sections of papillary muscle were isolated from the rabbit hearts and were perfused in a thermostatized bath with a saturated solution of 100% O2.

With `C[N+](C)(C)C[C@H](O)CC(=O)[O-]` [L-carnitine] the ATP concentrations in papillary muscle after hypoxia was 0.59 ± 0.31 µmol/g tissue.
Compound L-carnitine alpha-ketoglutarate has an ATP concentrations in papillary muscle after hypoxia of 1.48 ± 0.72 µmol/g tissue.

— patent publication US7728037B2, “Alpha-ketoglutarates of active ingredients and compositions containing same” (Sigma-Tau Industrie Farmaceutiche Riunite S.p.A., priority 2001, dated 2010)
